Total acid output and Ulcer index data for one substance are collected here from US6617338B2, “Orally administrable acid stable antiulcer benzimidazole derivatives” (priority 2000, dated 2003).

This assay relates to pylorus ligated rats. As to the kind of experiment: Pylorus ligated rats: total acid output and ulcer index. Type of assay: in vivo, Wistar albino rats. Particulars: 0.4 mg/kg × 1 day p.o., mean ± SEM. The source says: The distribution of animals in groups, the sequence of trials and the treatment allotted to each group were randomized. Gastric ulceration was produced by pylorus ligation and absolute ethanol administration. In these methods, animals were fasted for 36 hrs before the experiment. Coprohagy was prevented by fasting the animals in cages with grating as the floor. […] The animals were sacrificed using anaesthetic ether after the completion of experiments; the stomachs were removed, opened along the greater curvature, washed with saline and examined with 6.4* (cm diameter) binocular magnifier. Lesions were assessed by two observers unaware of the experimental protocol. […] They were administered per orally, 30 minutes after the drug treatment the animals were subjected to any ulcerogenic procedure. Rats were anesthetized with anaesthetic ether and the portion of abdomen was opened by a small midline incision below the xiphoid process. Pylorus portion of the stomach was lifted and ligated. […] The stomach was isolated from the body and its contents were collected, measured and centrifuged. […] Immediately after the removal of the contents from the stomach, they were examined for lesions in the stomach portion which were measured and expressed in terms of ulcer index calculated as the total ulcerated area divided by the total mucosal area.

Consider “5-methoxy-2[(4-methoxy-3,5-dimethyl-2-pyridinyl)sulfinyl]-1H-benzimidazole [Omeprazole]”, for which the Total acid output (pylorus ligation 19 hours) came to 72.93 ± 7.17 meq/L/100 g. The Ulcer index (total ulcerated area divided by total mucosal area) is reported as 0.88 ± 0.10.
